Results published in US12077503B2, “Substituted cyclic amides and their use as herbicides” (FMC CORPORATION, priority 2015, dated 2024).

Legend:
Assay type in all cases: in vivo
[1] = system: wheat, winter (winter wheat, Triticum aestivum); assay: Test D preemergence; settings: scale 0 to 100
Text: (§1) Seeds of plant species selected from bluegrass (annual bluegrass, Poa annua), blackgrass (Alopecurus myosuroides), canarygrass (littleseed canarygrass, Phalaris minor), chickweed (common chickweed, Stellaria media), Galium (catchweed bedstraw, Galium aparine), bromegrass, downy (downy bromegrass, Bromus tectorum), field poppy (Papaver rhoeas), field violet (Viola arvensis), foxtail, green (green foxtail, Setaria viridis), deadnettle (henbit deadnettle, Lamium amplexicaule), ryegrass, Italian (Italian ryegrass, Lolium multiflorum), Kochia (Kochia scoparia), lambsquarters (Chenopodium album), oilseed rape (Brassica napus), pigweed (Amaranthus retroflexus), chamomile (scentless chamomile, Matricaria inodora), Russian thistle (Salsola kali), speedwell (bird's-eye speedwell, Veronica persica), barley, spring (spring barley, Hordeum vulgare), wheat, spring (spring wheat, Triticum aestivum), buckwheat, wild (wild buckwheat, Polygonum convolvulus), mustard, wild (wild mustard, Sinapis arvensis), oat, wild (wild oat, Avena fatua), radish, wild (wild radish, Raphanus raphanistrum), windgrass (Apera spica-venti), barley, winter (winter barley Hordeum vulgare), and wheat, winter (winter wheat, Triticum aestivum) were planted into a silt loam soil and treated preemergence with test chemicals formulated in a non-phytotoxic solvent mixture which included a surfactant.
(§2) Treated plants and controls were maintained in a controlled growth environment approximately 21 d after which time all species were compared to controls and visually evaluated. Plant response ratings, summarized in Table D, are based on a scale of 0 to 100 where 0 is no effect and 100 is complete control. A dash (-) response means no test result.

[2] = system: Galium (catchweed bedstraw, Galium aparine); assay: Test D preemergence; settings: scale 0 to 100
Text: as §1, §2

[3] = system: oat, wild (wild oat, Avena fatua); assay: Test D preemergence; settings: scale 0 to 100
Text: as §1, §2

[4] = system: Russian thistle (Salsola kali); assay: Test D preemergence; settings: scale 0 to 100
Text: as §1, §2

Kochia (Kochia scoparia) = assay: Test D preemergence; settings: scale 0 to 100
Text: as §1, §2

[5] = system: oilseed rape (Brassica napus); assay: Test D preemergence; settings: scale 0 to 100
Text: as §1, §2

[6] = system: mustard, wild (wild mustard, Sinapis arvensis); assay: Test D preemergence; settings: scale 0 to 100
Text: as §1, §2

[7] = system: buckwheat, wild (wild buckwheat, Polygonum convolvulus); assay: Test D preemergence; settings: scale 0 to 100
Text: as §1, §2

[8] = system: chamomile (scentless chamomile, Matricaria inodora); assay: Test D preemergence; settings: scale 0 to 100
Text: as §1, §2

[9] = system: pigweed (Amaranthus retroflexus); assay: Test D preemergence; settings: scale 0 to 100
Text: as §1, §2

[10] = system: barley, spring (spring barley, Hordeum vulgare); assay: Test D preemergence; settings: scale 0 to 100
Text: as §1, §2

[11] = system: wheat, spring (spring wheat, Triticum aestivum); assay: Test D preemergence; settings: scale 0 to 100
Text: as §1, §2

[12] = system: deadnettle (henbit deadnettle, Lamium amplexicaule); assay: Test D preemergence; settings: scale 0 to 100
Text: as §1, §2

[13] = system: radish, wild (wild radish, Raphanus raphanistrum); assay: Test D preemergence; settings: scale 0 to 100
Text: as §1, §2

[14] = system: ryegrass, Italian (Italian ryegrass, Lolium multiflorum); assay: Test D preemergence; settings: scale 0 to 100
Text: as §1, §2

[15] = system: bromegrass, downy (downy bromegrass, Bromus tectorum); assay: Test D preemergence; settings: scale 0 to 100
Text: as §1, §2

[16] = system: chickweed (common chickweed, Stellaria media); assay: Test D preemergence; settings: scale 0 to 100
Text: as §1, §2

[17] = system: sedge, umbrella (small-flower umbrella sedge, Cyperus difformis); assay: Test C flooded paddy test; settings: Flood, 0 is no effect, 100 is complete control
In short: (§3)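 Visual 0–100 injury rating versus controls (0 = no effect, 100 = complete control) at 13 to 15 d. 2-leaf-stage plants; pots flooded 3 cm over soil surface, test compound added to paddy water; greenhouse.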

[18] = system: ducksalad (Heteranthera limosa); assay: Test C flooded paddy test; settings: Flood, 0 is no effect, 100 is complete control
In short: as §3

Q: Which “Plant response rating: Wheat, Winter” value ([1]; 31 g ai/ha) does the source give for `CN1CC(c2cccc(C(F)(F)F)c2)C(C(=O)Nc2cccc(F)c2F)C1=O` (stereo not drawn) [Compound 636] here?
A: 5

Q: What about the “Plant response rating: Wheat, Winter” value ([1]; 62 g ai/ha) of the same molecule?
A: 60

Q: What about the “Plant response rating: Wheat, Winter” value ([1]; 125 g ai/ha) of the same molecule?
A: 70

Q: What about the “Plant response rating: Wheat, Winter” value ([1]; 250 g ai/ha) of the same molecule?
A: 65

Q: What about the “Plant response rating: Galium” value ([2]; 31 g ai/ha) of the same molecule?
A: 0

Q: And the “Plant response rating: Galium” value ([2]; 62 g ai/ha)?
A: 15

Q: And the “Plant response rating: Galium” value ([2]; 125 g ai/ha)?
A: 30

Q: What about the “Plant response rating: Galium” value ([2]; 250 g ai/ha) of the same molecule?
A: 60

Q: What about the “Plant response rating: Oat, Wild” value ([3]; 31 g ai/ha) of the same molecule?
A: 5

Q: What about the “Plant response rating: Oat, Wild” value ([3]; 62 g ai/ha) of the same molecule?
A: 30

Q: What about the “Plant response rating: Oat, Wild” value ([3]; 125 g ai/ha) of the same molecule?
A: 80

Q: What about the “Plant response rating: Oat, Wild” value ([3]; 250 g ai/ha) of the same molecule?
A: 85

Q: And the “Plant response rating: Russian Thistle” value ([4]; 31 g ai/ha)?
A: 0

Q: What about the “Plant response rating: Russian Thistle” value ([4]; 62 g ai/ha) of the same molecule?
A: 40

Q: What about the “Plant response rating: Russian Thistle” value ([4]; 125 g ai/ha) of the same molecule?
A: 50

Q: What about the “Plant response rating: Russian Thistle” value ([4]; 250 g ai/ha) of the same molecule?
A: 60

Q: What about the “Plant response rating: Kochia” value (Kochia (Kochia scoparia); 31 g ai/ha) of the same molecule?
A: 5

Q: And the “Plant response rating: Kochia” value (Kochia (Kochia scoparia); 62 g ai/ha)?
A: 25

Q: And the “Plant response rating: Kochia” value (Kochia (Kochia scoparia); 125 g ai/ha)?
A: 75

Q: What about the “Plant response rating: Kochia” value (Kochia (Kochia scoparia); 250 g ai/ha) of the same molecule?
A: 75

Q: And the “Plant response rating: Oilseed Rape” value ([5]; 31 g ai/ha)?
A: 10

Q: And the “Plant response rating: Oilseed Rape” value ([5]; 62 g ai/ha)?
A: 30

Q: And the “Plant response rating: Oilseed Rape” value ([5]; 125 g ai/ha)?
A: 60

Q: And the “Plant response rating: Oilseed Rape” value ([5]; 250 g ai/ha)?
A: 65

Q: And the “Plant response rating: Mustard, Wild” value ([6]; 31 g ai/ha)?
A: 0

Q: And the “Plant response rating: Mustard, Wild” value ([6]; 62 g ai/ha)?
A: 15

Q: And the “Plant response rating: Mustard, Wild” value ([6]; 125 g ai/ha)?
A: 15

Q: And the “Plant response rating: Mustard, Wild” value ([6]; 250 g ai/ha)?
A: 85

Q: What about the “Plant response rating: Buckwheat, Wild” value ([7]; 31 g ai/ha) of the same molecule?
A: 5

Q: What about the “Plant response rating: Buckwheat, Wild” value ([7]; 62 g ai/ha) of the same molecule?
A: 75

Q: What about the “Plant response rating: Buckwheat, Wild” value ([7]; 125 g ai/ha) of the same molecule?
A: 90

Q: And the “Plant response rating: Buckwheat, Wild” value ([7]; 250 g ai/ha)?
A: 80

Q: What about the “Plant response rating: Chamomile” value ([8]; 31 g ai/ha) of the same molecule?
A: 90

Q: And the “Plant response rating: Chamomile” value ([8]; 62 g ai/ha)?
A: 100

Q: And the “Plant response rating: Chamomile” value ([8]; 125 g ai/ha)?
A: 100

Q: And the “Plant response rating: Chamomile” value ([8]; 250 g ai/ha)?
A: 100

Q: What about the “Plant response rating: Pigweed” value ([9]; 31 g ai/ha) of the same molecule?
A: 0

Q: What about the “Plant response rating: Pigweed” value ([9]; 62 g ai/ha) of the same molecule?
A: 10

Q: And the “Plant response rating: Pigweed” value ([9]; 125 g ai/ha)?
A: 50

Q: And the “Plant response rating: Pigweed” value ([9]; 250 g ai/ha)?
A: 85

Q: What about the “Plant response rating: Barley, Spring” value ([10]; 31 g ai/ha) of the same molecule?
A: 35

Q: And the “Plant response rating: Barley, Spring” value ([10]; 62 g ai/ha)?
A: 55

Q: And the “Plant response rating: Barley, Spring” value ([10]; 125 g ai/ha)?
A: 60

Q: And the “Plant response rating: Barley, Spring” value ([10]; 250 g ai/ha)?
A: 75

Q: What about the “Plant response rating: Wheat, Spring” value ([11]; 31 g ai/ha) of the same molecule?
A: 20

Q: What about the “Plant response rating: Wheat, Spring” value ([11]; 62 g ai/ha) of the same molecule?
A: 40

Q: What about the “Plant response rating: Wheat, Spring” value ([11]; 125 g ai/ha) of the same molecule?
A: 45

Q: And the “Plant response rating: Wheat, Spring” value ([11]; 250 g ai/ha)?
A: 80

Q: And the “Plant response rating: Deadnettle” value ([12]; 31 g ai/ha)?
A: 0

Q: And the “Plant response rating: Deadnettle” value ([12]; 62 g ai/ha)?
A: 35

Q: And the “Plant response rating: Deadnettle” value ([12]; 125 g ai/ha)?
A: 70

Q: And the “Plant response rating: Deadnettle” value ([12]; 250 g ai/ha)?
A: 75

Q: And the “Plant response rating: Radish, Wild” value ([13]; 62 g ai/ha)?
A: 25

Q: What about the “Plant response rating: Radish, Wild” value ([13]; 125 g ai/ha) of the same molecule?
A: 65

Q: And the “Plant response rating: Radish, Wild” value ([13]; 250 g ai/ha)?
A: 100

Q: What about the “Plant response rating: Ryegrass, Italian” value ([14]; 31 g ai/ha) of the same molecule?
A: 15

Q: What about the “Plant response rating: Ryegrass, Italian” value ([14]; 62 g ai/ha) of the same molecule?
A: 40

Q: What about the “Plant response rating: Ryegrass, Italian” value ([14]; 125 g ai/ha) of the same molecule?
A: 65

Q: And the “Plant response rating: Ryegrass, Italian” value ([14]; 250 g ai/ha)?
A: 80

Q: And the “Plant response rating: Bromegrass, Downy” value ([15]; 31 g ai/ha)?
A: 10

Q: And the “Plant response rating: Bromegrass, Downy” value ([15]; 62 g ai/ha)?
A: 20

Q: What about the “Plant response rating: Bromegrass, Downy” value ([15]; 125 g ai/ha) of the same molecule?
A: 55

Q: What about the “Plant response rating: Bromegrass, Downy” value ([15]; 250 g ai/ha) of the same molecule?
A: 80

Q: What about the “Plant response rating: Chickweed” value ([16]; 31 g ai/ha) of the same molecule?
A: 85

Q: And the “Plant response rating: Chickweed” value ([16]; 62 g ai/ha)?
A: 85

Q: What about the “Plant response rating: Chickweed” value ([16]; 125 g ai/ha) of the same molecule?
A: 90

Q: What about the “Plant response rating: Chickweed” value ([16]; 250 g ai/ha) of the same molecule?
A: 90

Q: How did the “Plant response rating (scale of 0 to 100), Sedge, Umbrella” value (“Plant response rating … Umbrella” below) ([17]; 31 g ai/ha) turn out when `CN1CC(c2ccc(F)c(C(F)(F)F)c2)C(C(=O)Nc2cccc(F)c2F)C1=O` (stereo not drawn) [Compound 613] was run?
A: 0

Q: What about the “Plant response rating … Umbrella” value ([17]; 62 g ai/ha) of the same molecule?
A: 0

Q: What about the “Plant response rating … Umbrella” value ([17]; 125 g ai/ha) of the same molecule?
A: 0

Q: And the “Plant response rating … Umbrella” value ([17]; 250 g ai/ha)?
A: 0

Q: What about the “Plant response rating (scale of 0 to 100), Ducksalad” value (“Plant response rating … Ducksalad” for short) ([18]; 31 g ai/ha) of the same molecule?
A: 0

Q: And the “Plant response rating … Ducksalad” value ([18]; 62 g ai/ha)?
A: 60

Q: What about the “Plant response rating … Ducksalad” value ([18]; 125 g ai/ha) of the same molecule?
A: 75

Q: And the “Plant response rating … Ducksalad” value ([18]; 250 g ai/ha)?
A: 100
